Measured values: patent US20100016435A1, “HYBRID MOLECULES HAVING MIXED VITAMIN D RECEPTOR AGONISM AND HISTONE DEACETYLASE INHIBITORY PROPERTIES” (McGill University, priority 2006, published 2010)

How the values were obtained:
SCC4 cells [1] = experiment: Antiproliferative activity in SCC4 cells
Protocol: Tissue culture media was changed daily and fresh 1, 6 or vehicle were added.

SCC4 cells [2] = conditions: cited from earlier work
SCC4 cells [3] = experiment: Cell cycle distribution by FACS analysis; type: cell-based, human; conditions: 100 nM 1, or 100 nM 1 and 15 nM 3; 72 h
Protocol: FIG. 11 is an illustration of the results obtained by fluorescence-activated cell sorting (FACS) analysis on the distribution of SCC4 cells in the cell cycle following treatment with vehicle (−), 1, or 1 and 3 together at the concentrations indicated.
The combined effects of 1 and 3 on the distribution of SCC4 cells in the cell cycle were assessed by FACS analysis (FIG. 11). Cells were treated with vehicle, 100 nM 1, or a combination of 100 nM 1 and 15 nM 3 for 72 h, as indicated.

SCC4 cells [4] = experiment: Protein acetylation in nuclear and cytoplasmic extracts, Western blot with anti-acetyllysine antibody; type: cell-based, human; conditions: 6 h
Text: (§1) FIG. 4 is an illustration of the HDAC inhibitory activity of 3 in the SCC4 cell line. FIG. 4A is an illustration of a western blot of nuclear and cytoplasmic extracts of SCC4 cells treated with vehicle (−), 1, or 3 alone or in combination, as indicated. The 55 kDa band corresponds to the molecular weight of tubulin. FIG. 4B illustrates a western blot probed with an antibody directed against acetylated histone H4 (AcH4) showing the effects of the treatments described in A on acetylation of histone H4. FIG. 4C illustrates western blots of the effects of treatments described in A on levels of total alpha-tubulin (left) and acetylated alpha-tubulin (right).
(§2) In preliminary experiments, TSA-inducible protein acetylation was analyzed in nuclear and cytoplasmic extracts of SCC4 cells treated for 6 h with 1, 3, or 1 and 3 and subsequently probed by Western blotting for protein acetylation using an anti-acetyllysine antibody. […] Effects of 3 on histone acetylation specifically, were confirmed by probing for acetylation of histone H4 (FIG. 4B). […] However, it was not clear whether this corresponded to enhanced expression or acetylation. […] This was confirmed by probing cytoplasmic fractions with an antibody that recognized α-tubulin (FIG. 4C). Calcitriol (1) had no effect on the acetylation of α-tubulin, and none of the treatments had any substantial effect on total α-tubulin expression (FIG. 4C).

SCC4 cells [5] = experiment: Acidic β-galactosidase activity (marker of autophagy), X-Gal staining and 620 nm measurement; type: cell-based, human; conditions: for acidic β-galactosidase staining (X-Gal, pH 4.0), cytochemical: qualitative, FIG. 10A
Text: FIG. 10 is an illustration of the effects of 1, 3, 1+3 and 6 on the induction of acidic β-galactosidase activity, a marker of autophagy (A); FIG. 10 is an illustration of the effects 1, 3, 1+3 and 6 on the levels of β-galactosidase expression as obtained by measuring the indigo cleavage product of X-Gal at 620 nm (B).
Since it was observed that treatment with 1 could enhance cell death by autophagy (ref. 26), the effects of different treatments on the induction of acidic β-galactosidase activity, a marker of autophagy (FIG. 10A) was tested.

SCC25 cells [6] = conditions: cited from earlier work
SCC4 cells [7] = experiment: Immunocytochemical and morphological analysis (mitotic catastrophe); type: cell-based, human
Text: FIG. 12 is an illustration of the immunocytochemical analysis of the effects of 1, 3, or 1 and 3 combined on SCC4 cells (A). […] Both phenotypes are characteristics of mitotic catastrophe. The lower panels (B) show cytoplasmic bridges between SCC4 cells treated with 1 and 3, consistent with the formation of the tubulin bridges seen above in A.
Assembly into microtubules is regulated by acetylation. […] Previous studies have shown that microtubule stabilizing agents can induce mitotic catastrophe (ref. 30). […] The formation of intercellular microtubular structures was consistent with observations in the light microscope of numerous intercellular bridges in cells treated with both 1 and 3 (FIG. 12B, arrows), but not in other treatment groups (not shown).

histone H4 = experiment: Histone H4 acetylation, Western blot; type: cell-based, human; conditions: SCC4 cells, 6 h
Text: as §1, §2

SCC25 cells [8] = experiment: Antiproliferative activity in SCC25 cells; type: cell-based; conditions: 1 at 1 nM or 100 nM; 3 15 nM; combination 3 with 100 nM 1; FIG. 7B
Text: FIG. 7 is an illustration of the antiproliferative activities of 1 and 3, individually or in combination, in SCC4 cells (A) or in SCC25 cells (B) at the concentrations indicated.

α-tubulin = experiment: α-Tubulin acetylation in SCC4 cells, Western blot; type: cell-based, human; conditions: for levels of acetylated alpha-tubulin normalized for total alpha-tubulin: 3 15 nM, 36 or 39 10^−6 or 10^−7M, 6 h or 24 h, FIG. 6C
Text: as §1
FIG. 6 is a comparison of the HDAC inhibitory activities of 1, 3, 6, 36 or 39 as assessed by their effects on acetylation of alpha-tubulin. In A, SCC4 cells were incubated with vehicle or compound 1 (10^−6M), 3 (15 nM), 6 (10^−6M) and 36 (10^−6M), as indicated for 6 h and protein extracts were probed for total α-tubulin (Tub.) or acetylated α-tubulin (AcTub.) by Western blotting. Blots for acetylated alpha-tubulin and total alpha-tubulin are shown. In B, SCC4 cells were incubated with vehicle or compound 3 (15 nM), 6 (10^−6M) or 36 (10^−6M) as indicated for 6 h or 24 h and protein extracts were probed for acetylated α-tubulin (AcTub.) by Western blotting. In C, SCC4 cells were incubated with vehicle or compounds 3 (15 nM), 36 (10^−6 or 10^−7M) or 39 (10^−6 or 10^−7M) as indicated for 6 h or 24 h and protein extracts were probed for total α-tubulin (tub.) or acetylated α-tubulin (AcTub.) by Western blotting.
as §2
SCC4 cells were incubated with vehicle or compound as indicated for 6 h and cytoplasmic protein extracts were probed by Western blotting using a specific antibody for acetylated α-tubulin.

human VDR = molecular target: T1, human VDR (Homo sapiens, UniProt P11473); experiment: Reporter gene assay (VDRE-luciferase) in transiently transfected COS7 cells; type: cell-based
T1 construct: expressed in transfected cells; host or cells: COS7
T1 sequence (P11473 1-427): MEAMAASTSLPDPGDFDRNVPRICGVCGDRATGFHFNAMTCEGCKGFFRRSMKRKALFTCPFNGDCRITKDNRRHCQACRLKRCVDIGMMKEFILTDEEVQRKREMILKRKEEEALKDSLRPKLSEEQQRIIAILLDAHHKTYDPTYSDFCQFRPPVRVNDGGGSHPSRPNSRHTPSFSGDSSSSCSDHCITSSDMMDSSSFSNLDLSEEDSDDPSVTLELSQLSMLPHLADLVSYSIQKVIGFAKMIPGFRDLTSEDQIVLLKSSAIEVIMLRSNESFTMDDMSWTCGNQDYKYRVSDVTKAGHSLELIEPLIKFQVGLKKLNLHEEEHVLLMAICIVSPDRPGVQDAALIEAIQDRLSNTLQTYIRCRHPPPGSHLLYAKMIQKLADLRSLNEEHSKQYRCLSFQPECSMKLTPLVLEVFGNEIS
Protocol: FIG. 2 is an illustration of the vitamin D receptor agonist activity of 6 using a reporter gene assay in transiently transfected COS7 cells.
Hybrid molecule 6 was tested for calcitriol agonist activity using a reporter gene assay under standard conditions.^25,26 COS7 cells were transiently co-transfected with a plasmid expression vector for the human VDR, a plasmid vector expressing bacterial β-galactosidase from a constitutively active promoter (as an internal control for transfection efficiency), and a vector containing a luciferase reporter gene, under control of a previously described synthetic promoter composed of three high affinity VDREs (Vitamin D Response Elements) placed immediately upstream of a truncated promoter region from the herpes simplex virus thymidine kinase gene.^25 Cells were left overnight in the presence of DNA and transfection reagent (lipofectamine). The media were changed and cells were incubated in fresh media containing either vehicle (DMSO), 1 (100 nM), 3 (15 nM), 1 and 3 combined (100 nM/15 nM) or 6 (100 nM), and incubated a further 36 h.

[9] = tested on: MCF-7 breast cancer cells; experiment: Cell viability, trypan blue dye exclusion assay; type: cell-based; conditions: 24 h; 6 at 10^−7 or 10^−6M versus 1 at 10^−6M or 1 and 3; FIG. 9A
Protocol: (§3) FIG. 9 is an illustration of the effects of 1, 3, 1+3, 6 and 36 administered at the concentrations indicated on cell viability in two models. The viability of MCF-7 breast cancer cells was monitored after 24 h of incubation using a trypan blue dye exclusion assay (A).
(§4) The effect of 1, 3, 1+3, 6 and 36 on cell viability was tested in two models. The viability of MCF-7 breast cancer cells was monitored after 24 h of incubation using a trypan blue dye exclusion assay (FIG. 9A). […] The effects of 100 nM 1, 15 nM 3 (TSA), 1 and 3 combined (100 nM/15 nM) and 100 nM 6 (hybrid molecule) on cell viability were tested by screening for induction of markers of apoptotic cell death. Annexin V staining was screened by FACS analysis as in Tavera-Mendoza et al.^26 While all treatments induced modest increases in annexin V staining, apoptosis could be excluded as the major cause of cell death (FIG. 9B).

PC3 = experiment: Antiproliferative activity in PC3 prostate cancer cells; type: cell-based; conditions: PC3, data not shown
HDAC = experiment: Colorimetric HDAC assay with nuclear extracts of SCC4 cells; type: biochemical, human
Protocol: FIG. 5 is a comparison of the capability of 3 and 6 (20 nM and 200 nM) in blocking deacetylation of a substrate that absorbs at 405 nm in its deacetylated form.
Hybrid molecule 6 was tested for HDAC inhibitory activity using a colorimetric assay as illustrated in FIG. 5. Nuclear extracts of SCC4 cells were incubated with vehicle, 3 or 6 in the presence of substrate for 60 min at 37° C. Following incubation with developer (1 min.), the absorbance was measured at 405 nm.

Du145 = experiment: Antiproliferative activity in Du145 prostate cancer cells; type: cell-based; conditions: Du145, data not shown
SCC4 cells [10] = experiment: Annexin V staining by FACS (apoptotic cell death); type: cell-based, human; conditions: after pretreatment with UV light
Protocol: as §3, §4

C=C1/C(=C\C=C2/CCC[C@@]3(C)C2CCC3[C@H](C)CCCC(C)(C)O)C[C@@H](O)C[C@@H]1O (stereo partly drawn) [compound 1, 1α,25-Dihydroxyvitamin D3]
SCC4 proliferation (SCC4 cells [1]; 1 nM or 100 nM 1, alone or with 15 nM 3, FIG. 7A): modest effects
resistance of SCC4 to antiproliferative effects (SCC4 cells [2]): resistant
proportion of cells in G1 (SCC4 cells [3]): augmented
proportion of cells in G2/M (SCC4 cells [3]): augmented
proportion of cells in S phase (SCC4 cells [3]): substantially diminished
levels of a product of ~70 kDa (SCC4 cells [4]; cytoplasmic extracts): modestly but consistently enhanced
acetylation of low molecular weight nuclear proteins (SCC4 cells [4]; nuclear extracts): no effect
acidic β-galactosidase staining (X-Gal, pH 4.0), cytochemical (SCC4 cells [5]): generally enhanced
cell cycle arrest (SCC25 cells [6]): G0/G1 arrest
cell morphology (SCC4 cells [7]; FIG. 12): did not differ from control cells
induction of mitotic catastrophe (SCC4 cells [7]; SCC4 cells): not 1 or 3 alone
histone H4 acetylation (histone H4): little effect
SCC25 proliferation / sensitivity (SCC25 cells [8]): relatively more sensitive
acetylation of α-tubulin (α-tubulin; cytoplasmic fractions, FIG. 4C): no effect

C[C@H](CCCC(=O)NO)[C@H]1CC[C@H]2/C(=C/C=C3C[C@@H](O)C[C@H](O)C3)CCC[C@]12C [compound 36]
levels of acetylated alpha-tubulin normalized for total alpha-tubulin (α-tubulin): observed only in cells treated with 3
tubulin acetylation (α-tubulin; 10^−6 M, 6 or 24 h, FIG. 6B): no effect

C[C@H](CCCCC(=O)NO)[C@H]1CC[C@H]2/C(=C/C=C3C[C@@H](O)C[C@H](O)C3)CCC[C@]12C [compound 39]
levels of acetylated alpha-tubulin normalized for total alpha-tubulin (α-tubulin): observed only in cells treated with 3

C=C1/C(=C\C=C2/CCC[C@@]3(C)C2CCC3[C@H](C)/C=C/C=C/C(O)(CC)CC)C[C@@H](O)C[C@@H]1O (stereo partly shown) [compound 4, EB1089]
expression from the internal control plasmid (β-galactosidase) (human VDR; COS7 cells): modestly enhanced expression

CC(/C=C/C(=O)NO)=C\[C@@H](C)[C@H]1CC[C@H]2/C(=C/C=C3C[C@@H](O)C[C@H](O)C3)CCC[C@]12C [compound 6, (2E,4E,6R)-6-[(1R,3R,7E,17β)-1,3-dihydroxy-9,10secoestra-5,7-dien-17-yl]-N-hydroxy-4-methylhepta-2,4-dienamide]
inhibition of SCC4 proliferation (SCC4 cells [1]; 96 h, media and compound changed daily, FIG. 8A): greater efficacy than 1
cell death (viability) [9]: markedly more cell death
antiproliferative activity (PC3): similar
reporter gene activity (calcitriol agonist activity) (human VDR; COS7, 36 h, 1 100 nM, 3 15 nM, 6 100 nM, not normalized): essentially identical to that of 1
levels of autophagy (SCC4 cells [5]; cytochemical and quantitative analysis): elevated levels of autophagy
increase in β-galactosidase expression versus 1 or 1+3 (SCC4 cells [5]; indigo cleavage product of X-Gal at 620 nm, FIG. 10B): ~30%
acidic β-galactosidase staining (X-Gal, pH 4.0), cytochemical (SCC4 cells [5]): higher percentage of cells that stained intensely
fold less potent than TSA (3) (HDAC; HDAC inhibition): about 10 fold
inhibiting HDAC activity, compared with 3 (HDAC; equimolar concentrations (20 nM), 60 min at 37° C.): less effective
antiproliferative activity (Du145): similar
annexin V staining versus 3, 1 or 1+3 (SCC4 cells [10]): substantially higher levels of apoptosis
tubulin acetylation (α-tubulin; 1 μM, 6 h, FIG. 6A): marked tubulin acetylation
tubulin acetylation (α-tubulin; after 24 h, FIG. 6B): remains elevated
